# Measured values published in US20150191484A1, “NOVEL COMPOUNDS HAVING A TETRACYCLIC IRIDOID SKELTON AND AN ANTI-TRYPANOSOMAL AGENT COMPRISING THE SAME AS AN ACTIVE INGREDIENT” (NATIONAL UNIVERSITY CORPORATION TOKYO MEDICAL AND DENTAL …, priority 2014, published 2015).
# Tests used:
# HCT-15 (colon cancer) = assay: MTT cytotoxicity assay, HCT-15; assay type: cell-based, human
# Procedure: (§1) The cytotoxic activity of natural products against mammalian cells is an important point in the search for active compounds with biological activity. […] In order to confirm the selective and potent anti-trypanosomal activity of ML-2-2 and ML-2-3, we examined their cytotoxicity in a panel of human cell lines including two human fibroblastic and 8 human cancer-derived cell lines. Cells were seeded in 96-well microplates and incubated with ML-2-2 and ML-2-3 for 48 h at 37° C. in a 5% CO2 humidified incubator. The viabilities of cells were determined with the MTT (3-(4,5-dimethylthiazol-2-yl)-2-5-diphenyltetrazolium bromide) assay. The selectivity index (SI) was determined using the following equation: IC50 against human cells/IC50 against T. brucei. The IC50 values of ML-2-3 were higher than those of ML-2-2 in all the cell lines examined. […] The SI of ML-2-2 indicates values below 1.00 in most cell lines. On the other hand, SI values of ML-2-3 were much higher than those of ML-2-2 in all tested cell lines.
# [1] = MTT cytotoxicity assay, HCT-15; assay type: cell-based, human; conditions: human, HCT-15 colon cancer cells; HCT-15 colon cancer, 48 h, MTT
# Procedure: as §1
# various human cells = assay: MTT cytotoxicity, panel of human cell lines (summary); assay type: cell-based; conditions: IC50 against human cells / IC50 against Trypanosoma
# Description: ML-2-3 has low cytotoxicity on mammalian cells. The cytotoxicity of ML-2-3 is very low compared to the cytotoxicity of ML-2-2. The cytotoxicity of ML-2-2 and ML-2-3 on mammalian cells can be compared as IC50 value. The usefulness of the compounds for a therapeutic agent for mammals including humans can be compared by a selectivity index (SI). For a compound to be accepted as a useful therapeutic agent for mammals means that the compound should have high anti-trypanosomal activity but low cytotoxicity on mammals. The selectivity index (SI) is represented by an equation: IC50 of cytotoxicity on mammalian cells/IC50 of anti-trypanosomal activity. In particular, it is represented by an equation: IC50 against human cells/IC50 against Trypanosoma such as Trypanosoma brucei. […] IC50 (μM) of ML-2-3 against HF-19 and HCT-15 is more than 50, which means that ML2-3 is non-toxic at the highest assayed dose in HF-19 and HCT-15. […]
# The cytotoxic activity of natural products against mammalian cells is an important point in the search for active compounds with biological activity. […] The viabilities of cells were determined with the MTT (3-(4,5-dimethylthiazol-2-yl)-2-5-diphenyltetrazolium bromide) assay. The selectivity index (SI) was determined using the following equation: IC50 against human cells/IC50 against T. brucei. […]
# Caco2 (colon cancer) = assay: MTT cytotoxicity assay, Caco2; assay type: cell-based, human; conditions: IC50 against Caco2 / IC50 against T. brucei
# Procedure: as §1
# [2] = MTT cytotoxicity assay, Caco2; assay type: cell-based, human; conditions: human, Caco2 colon cancer cells; Caco2 colon cancer, 48 h, MTT
# Procedure: as §1
# [3] = tested on: HF-19 (normal fibroblast); assay: MTT cytotoxicity assay, HF-19; assay type: cell-based, human
# Procedure: as §1
# [4] = MTT cytotoxicity assay, HF-19; assay type: cell-based, human; conditions: human, HF-19 normal fibroblast cells; HF-19 normal fibroblast, 48 h, MTT
# Procedure: as §1
# THP-1 (leukemia) = assay: MTT cytotoxicity assay, THP-1; assay type: cell-based, human; conditions: IC50 against THP-1 / IC50 against T. brucei
# Procedure: as §1
# [5] = MTT cytotoxicity assay, THP-1; assay type: cell-based, human; conditions: human, THP-1 leukemia cells; THP-1 leukemia, 48 h, MTT
# Procedure: as §1
# HL-60 (leukemia) = assay: MTT cytotoxicity assay, HL-60; assay type: cell-based, human; conditions: IC50 against HL-60 / IC50 against T. brucei
# Procedure: as §1
# [6] = MTT cytotoxicity assay, HL-60; assay type: cell-based, human; conditions: human, HL-60 leukemia cells; HL-60 leukemia, 48 h, MTT
# Procedure: as §1
# [7] = tested on: GUTat 3.1 strain of the bloodstream forms of T. b. brucei parasites; assay: Alamar Blue assay (trypanocidal activity); assay type: cell-based, Trypanosoma brucei brucei
# Procedure: The GUTat 3.1 strain of the bloodstream forms of T. b. brucei parasites was used for this study. Parasites were cultured in vitro according to the conditions established by Yabu et al, 1998.
# Parasites were used when they reached a confluent concentration of 1×10^6 parasites/ml. Estimation of parasitemia was done with the Neubauer's counting chamber. Parasites were diluted to a concentration of 3×10^5 parasites/ml with HMI-9 medium and used for the various experiments.
# The Alamar Blue assay was carried out in a 96-well plate. About 1.5×10^4 Parasites were seeded with varied concentrations of the Morinda lucida crude extract, ranging from as low as 0.78 μg/ml to as high as 200 μg/ml, in a ratio of 1:1 in 100 μl volume per well. Berberine, a compound known as anti-trypanocidal agent, was used as a positive control. […] The parasites were incubated with the plant extracts for 24 hours at 37° C. and under 5% CO2. After 24 hours, 10% Alamar Blue dye was added to each well and re-incubated for another 24 hours under the same conditions but in darkness. After a total of 48 hours, the plate was read for absorbance at 540 nm using the TECAN Sunrise Wako Spectrophotometer. An Absorbance-concentration (extract) curve was drawn and the IC50 value of the plant extract was extrapolated. Alamar Blue assay was also performed on the fractions and compounds purified from Morinda Lucida to determine their IC50 values. The IC50 values obtained were compared with that of the positive control and trypanocidal activity determined.
# Jurkat (leukemia) = assay: MTT cytotoxicity assay, Jurkat; assay type: cell-based, human; conditions: IC50 against Jurkat / IC50 against T. brucei
# Procedure: as §1
# [8] = MTT cytotoxicity assay, Jurkat; assay type: cell-based, human; conditions: human, Jurkat leukemia cells; Jurkat leukemia, 48 h, MTT
# Procedure: as §1
compound,measurement,setting,value
"COc1cc(/C=C2/C(=O)O[C@]34C=C[C@@H]5C(C(=O)O)=CO[C@H](O[C@@H]23)[C@@H]54)ccc1O [ML-2-3, (3aS,4aR,4a^1S,7aS,9aS,3E)-3-(4-hydroxy-3-methoxybenzylidene)-2-oxo-2,3,3a,4a,4a^1,7a-hexahydro-1,4,5-trioxadicyclopenta[a,hi]indene-7-carboxylic acid]",cytotoxicity (in words),"HCT-15 (colon cancer); HCT-15, highest assayed dose",non-toxic at the highest assayed doses
same,SI (selectivity index),HCT-15 (colon cancer); IC50 against HCT-15 / IC50 against T. brucei,>13.33
same,IC50 at 48 h,[1],> 50 µM
same,"selectivity index (SI), range over the human cell lines",various human cells,≥ 3.2 to more than 13
same,SI (selectivity index),Caco2 (colon cancer),11.88
same,IC50 at 48 h,[2],44.6 µM
same,cytotoxicity (in words),"[3]; HF-19, highest assayed dose",non-toxic at the highest assayed doses
same,SI (selectivity index),[3]; IC50 against HF-19 / IC50 against T. brucei,>13.33
same,IC50 at 48 h,[4],> 50 µM
same,SI (selectivity index),THP-1 (leukemia),4.11
same,IC50 at 48 h,[5],15.4 µM
same,SI (selectivity index),HL-60 (leukemia),6.81
same,IC50 at 48 h,[6],25.5 µM
same,IC50,"[7]; T. b. brucei, Alamar Blue, 48 h, read-out: IC50 of anti-trypanosomal activity",3.75 µM
same,inhibition of the growth of Trypanosoma brucei brucei (in words),[7]; in vitro,the most potent in vitro activity
same,SI (selectivity index),Jurkat (leukemia),3.31
same,IC50 at 48 h,[8],12.4 µM
